Measurements from ChEMBL document CHEMBL1201862, “PubChem BioAssay data set” (2004).
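In this assay, cells in 96-well plates receive the compound at five concentrations for 48 hours. Endpoints are linearly interpolated between the surrounding concentrations. The concentration for 50% growth inhibition is given as GI50.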 Activity calls are given as the source filed them. Cut-off read from the data, not from the text of the source: active = GI50 up to about 1.1 µM and inactive = higher. Where a SMILES comes first, the peptide text is derived from it. The star is where a group is joined. Fmoc = O=C(OCC1c2ccccc2-c2ccccc21)*; OtBu = CC(C)(C)O*

Experiments:
Test in all cases: inhibition of tumour cell growth, NCI panel, 48 h
U-251 = tested on: U-251
HOP-62 = tested on: HOP-62
SNB-75 = tested on: SNB-75
CCRF-CEM = tested on: CCRF-CEM
MOLT-4 = tested on: MOLT-4
SW-620 = tested on: SW-620
Hs-578T = tested on: Hs-578T
NCI/ADR-RES = tested on: NCI/ADR-RES
NCI-H460 = tested on: NCI-H460
HCT-15 = tested on: HCT-15
OVCAR-5 = tested on: OVCAR-5
KM12 = tested on: KM12
OVCAR-4 = tested on: OVCAR-4
Malme-3M = tested on: Malme-3M
ACHN = tested on: ACHN
786-0 = tested on: 786-0
MDA-MB-231 = tested on: MDA-MB-231
SN12C = tested on: SN12C
SNB-19 = tested on: SNB-19
A549 = tested on: A549

CC(C)C(NC(=O)OCC1c2ccccc2-c2ccccc21)C(=O)NC(CCC(=O)OC(C)(C)C)C(=O)OC(C)(C)C (stereo not given) (Fmoc-Val-Glu(OtBu)-OtBu; configuration not given here)
GI50 (U-251): 7.59 µM (inactive)
GI50 (HOP-62): > 93.1 µM (inactive)
GI50 (SNB-75): > 46.9 µM (inactive)
GI50 (CCRF-CEM): > 100 µM (inactive)
GI50 (MOLT-4): 4.21 µM (inactive)
GI50 (SW-620): > 71.4 µM (inactive)
GI50 (Hs-578T): > 100 µM (inactive)
GI50 (NCI/ADR-RES): 27 µM (inactive)
GI50 (NCI-H460): 21.2 µM (inactive)
GI50 (HCT-15): > 100 µM
GI50 (OVCAR-5): > 100 µM (inactive)
GI50 (KM12): > 29.2 µM (inactive)
GI50 (OVCAR-4): 12.8 µM (inactive)
GI50 (Malme-3M): > 100 µM (inactive)
GI50 (ACHN): > 100 µM (inactive)
GI50 (786-0): > 100 µM (inactive)
GI50 (MDA-MB-231): 19.3 µM (inactive)
GI50 (SN12C): > 31.6 µM (inactive)
GI50 (SNB-19): > 100 µM (inactive)
GI50 (A549): 60 µM (inactive)

C[C@@H](CN1CC(=O)NC(=O)C1)N1CC(=O)NC(=O)C1 [DEXRAZOXANE]
GI50 (U-251): 228 µM (inactive)
GI50 (HOP-62): 66.8 µM (inactive)
GI50 (SNB-75): 318 µM (inactive)
GI50 (CCRF-CEM): 21.4 µM (inactive)
GI50 (MOLT-4): 15.8 µM (inactive)
GI50 (SW-620): 57.5 µM (inactive)
GI50 (Hs-578T): 320 µM (inactive)
GI50 (NCI/ADR-RES): 282 µM (inactive)
GI50 (NCI-H460): 6.67 µM (inactive)
GI50 (HCT-15): 122 µM
GI50 (OVCAR-5): 372 µM (inactive)
GI50 (KM12): 522 µM (inactive)
GI50 (OVCAR-4): 115 µM (inactive)
GI50 (Malme-3M): 165 µM (inactive)
GI50 (ACHN): 139 µM (inactive)
GI50 (786-0): 266 µM (inactive)
GI50 (MDA-MB-231): 168 µM (inactive)
GI50 (SN12C): 232 µM (inactive)
GI50 (SNB-19): 279 µM (inactive)
GI50 (A549): 37.2 µM (inactive)
